From publication PMC7822874, “Chemoprotective antimalarials identified through quantitative high-throughput screening of Plasmodium blood and liver stage parasites” (Scientific Reports, 2021)
“Also recorded” adds a separate entry of the source. Read-outs that look alike come from different tables or passages of the source.

Legend:
[1] = system: P. falciparum Dd2-B2 parasites; assay: In vitro resistance selection under constant drug pressure; format: cell-based, Plasmodium falciparum; settings: for Recrudescence under pressure: 2 × 10^9 parasites, 5 × AC50 (NCGC00473217) or 3 × AC50 (NCGC00374598); for AC50 increase of selected clones: clones from selections with the same compound
Description: Recently cloned P. falciparum Dd2-B2 parasites, cultured in duplicate flasks each harboring an inoculum of 2 × 10^9 parasites, were subjected to constant drug pressure from NCGC00473217 at 5 × AC50 or NCGC00374598 at 3 × AC50. […] Clones were then obtained by limiting dilution and three to four clones from each flask were expanded for profiling and sequencing.
Fresh uninfected RBCs (0.5% hematocrit) were added on day 7 and media was changed every other day. […] Resistant parasites were maintained under drug media at a volume of 50 mL until a high parasitemia (> 5%) was achieved. Aliquots of the bulk resistant cultures were frozen in cryovials before cloning by limiting dilution in 96-well plates (seeded at 0.25 or 0.5 parasites/well)[70]. After 3 weeks of cloning, we screened for positive wells by flow cytometry with SYBR Green-stained cells. […] Parasites were harvested by saponin lysis at the trophozoite stage and genomic DNA was extracted using the QIAamp DNA Blood Midi Kit (Qiagen, Germantown, MD)[71].

[2] = system: luciferase-expressing P. berghei liver stage parasites in HepG2 cells; assay: Inhibition of liver-stage development assay (ILSDA), Method 2 (WRAIR, 96-well); format: cell-based, Plasmodium berghei; settings: for AC50: Plasmodium berghei
[3] = Rat liver microsomal stability (RLMS); settings: for half-life: rat
Description: (§1) Pharmacokinetic modeling experiments, parallel artificial membrane permeability assay (PAMPA), solubility, and rat liver microsome stability assessment were performed on all synthetic compounds, as previously described[73]–[75].

[4] = system: P. falciparum Dd2 Cytb F123L; assay: SYBR Green ABS proliferation assay, NCGC00473217 selected clone G08; format: cell-based, Plasmodium falciparum
In short: (§2)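 Drug-selected P. falciparum Dd2 clones carrying Cytb mutations, obtained by limiting-dilution cloning, grown in RBCs at 37 °C under 5% CO2/5% O2/90% N2. Growth read by SYBR Green-I fluorescence at 72 h and normalized to controls.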

[5] = system: P. berghei-ANKA-GFP-LucCON liver stage parasites in HepG2-A16-CD81EGFP cells; assay: P. berghei liver stage Pb-Luc assay, Method 1 (UCSD, 1536-well); format: cell-based, Plasmodium berghei; settings: Plasmodium berghei; for AC50: UCSD, read-out: liver stage AC50 (Method 1)
[6] = system: P. falciparum Dd2 (clone B2) asexual blood stage parasites; assay: P. falciparum Dd2 asexual blood stage SYBR Green-I 72 h proliferation assay (qHTS); format: cell-based, Plasmodium falciparum
[7] = system: P. falciparum Dd2 Cytb V259L; assay: SYBR Green ABS proliferation assay, NCGC00473217 selected clone F06; format: cell-based, Plasmodium falciparum; settings: Plasmodium falciparum
In short: as §2

[8] = in vitro; settings: human, HepG2-A16-CD81EGFP cells, uninfected
[9] = Parallel artificial membrane permeability assay (PAMPA); format: in vitro ADME; settings: for PAMPA pH7.4: pH 7.4
Description: as §1

[10] = system: P. falciparum Dd2 Cytb G131S; assay: SYBR Green ABS proliferation assay, NCGC00374598 selected clone C11; format: cell-based, Plasmodium falciparum; settings: for AC50: Plasmodium falciparum
In short: as §2

[11] = Aqueous solubility; format: physicochemical; settings: for solubility: aqueous media
Description: as §1

[12] = system: P. falciparum Dd2 Cytb A122D; assay: SYBR Green ABS proliferation assay, NCGC00473217 selected clone F12; format: cell-based, Plasmodium falciparum; settings: Plasmodium falciparum
In short: as §2

[13] = in vitro; settings: human; for AC50 at 48 h: HepG2 cells, HepG2 AC50 (mammalian cellular toxicity), 48 h compound exposure
[14] = system: HepG2 cells; assay: HepG2 mammalian toxicity, CellTiter-Glo, 48 h; settings: 48 h compound exposure
[15] = HepG2, 48 h, 48 h, firefly luciferase reporter P. berghei line, read-out: ILSDA AC50
[16] = Plasmodium falciparum, DD2, NCGC00473217 selected clone G08, highest concentration 29 µM, read-out: AC50 [μM], Cytb F123L (converted)
[17] = Plasmodium falciparum, DD2, Suppl Table 6, read-out: AC50 (mM), Dd2 Cytb F123L
[18] = Plasmodium falciparum, DD2, 72 h, SYBR Green 72 h, WT Dd2-B2, read-out: AC50 Log[M] ± SD, Dd2-B2 (parental line) (converted)
[19] = Plasmodium falciparum, DD2, 72 h, SYBR Green 72 h, approximate value in μM, read-out: AC50 [μM], Dd2-B2 (parental line) (converted)
[20] = DD2, NCGC00473217 selected clone F06, read-out: AC50 [μM], Cytb V259L (converted)
[21] = DD2, NCGC00473217 selected clone, read-out: AC50 Log[M] ± SD, Cytb V259L (converted)
[22] = DD2, Suppl Table 6, read-out: AC50 (mM), Dd2 Cytb V259L
[23] = DD2, NCGC00374598 selected clone C11, read-out: AC50 [μM], Cytb G131S (converted)
[24] = DD2, NCGC00374598 selected clone, read-out: AC50 Log[M] ± SD, Cytb G131S (converted)
[25] = DD2, Suppl Table 6, read-out: AC50 (mM), Dd2 Cytb G131S
[26] = DD2, NCGC00473217 selected clone F12, read-out: AC50 [μM], Cytb A122D (converted)
[27] = DD2, NCGC00473217 selected clone, read-out: AC50 Log[M] ± SD, Cytb A122D (converted)
[28] = DD2, Suppl Table 6, read-out: AC50 (mM), Dd2 Cytb A122D
[29] = Plasmodium falciparum, DD2, NCGC00473217 selected clone, read-out: AC50 Log[M] ± SD, Cytb F123L (converted)
[30] = HepG2, 48 h, 48 h, read-out: ILSDA AC50 (Method 2)
[31] = SYBR Green 72 h, approximate value in μM

SMILES | Recrudescence under pressure [1] | AC50 increase of selected clones [1] | AC50 [2, 15] | half-life ([3]; rat liver microsomes) | AC50 [4, 16] | AC50 [4, 17] | AC50 [5] | inhibition at 1 µM [5] | AC50 [6, 18] | AC50 [6, 19] | AC50 [7, 20] | AC50 [7, 21] | PAMPA pH7.4 [9] | AC50 [10, 23] | AC50 [10, 24] | solubility [11] | AC50 [12, 26] | AC50 [12, 27] | HepG2 AC50 (mammalian cellular toxicity) [14] | AC50 [4, 29] | also measured
CCCN1C(CC(C)C)=NS(=O)(=O)c2cc(NC(=O)c3cccs3)ccc21 [NCGC00473217] | 14 to 17 days | 10 to 60 fold | 112 nM | 5 min | > 29 µM | > 29 µM | 3 nM | > 90% | 2.19e-07 M | 2.19e-07 M | 1.18 µM | 1.17 µM | 222 1e-6 cm/s | 0.68 µM | 0.676 µM | < 1 µg/mL | 2.82 µM | 2.82 µM | – | – | Activity direction (Decrease / Inactive) ([2]; P. berghei liver stage, Method 2, dose response): Decrease; AC50 ([2]; HepG2, P. berghei liver stage, Method 2, dose response, read-out: Log AC50 (converted)): 112 nM; AC50 [μM], Cytb F123L ([4]; NCGC00473217 selected clone G08, highest concentration 29 µM): greater than the maximum concentration tested; AC50 ([4]; NCGC00473217 selected clone G08, highest concentration 29 µM, read-out: AC50 [μM], Cytb F123L (converted)): > 29 µM; IC50 shift, F123L clone ([4]; versus parental): > 500 fold; inhibition at 3 µM [5]: > 95%; AC50 [7, 22]: 1.18 µM; viability at 66 h [8]: 106%; AC50 [10, 25]: 0.676 µM; AC50 [12, 28]: 2.82 µM
CC(=O)Nc1ccc(CN2CCc3nc(C(C)C)nc(-c4ccc(Cl)cc4)c3CC2)cc1 [NCGC00374598] | 36 days | threefold increase | – | – | – | 0.389 µM | 710 nM | > 60% | 1.58e-06 M | 1.5e-06 M | – | 2.82 µM | – | – | 3.47 µM | – | – | 2.09 µM | no apparent toxicity | 0.389 µM | Max Resp (signal direction of the dose response) ([2]; Method 2, Decrease = decreasing P. berghei viability with dose, Increase = increasing signal, Inactive = no dose response): Inactive; AC50 ([2]; HepG2, mean, read-out: liver stage AC50 (Method 2)): 500 nM; half-life ([3]; microsomes): 4 min; AC50 [13]: > 20000 nM; inhibition at 3 µM [5]: > 90%; AC50 ([6]; Plasmodium falciparum, DD2, Suppl Table 6, read-out: AC50 (mM), WT (Dd2-B2)): 1.51e-06 M; AC50 ([6]; SYBR Green 72 h, approximate value in μM, read-out: AC50 [μM], Dd2-B2 (parental line) (converted)): 1.51e-06 M; AC50 [7, 22]: 2.82 µM; AC50 [10, 25]: 3.47 µM; AC50 [12, 28]: 2.09 µM
CCCN1C(c2ccccc2)=NS(=O)(=O)c2cc(NC(=O)c3cccs3)ccc21 [NCGC00532332] | – | – | 39 nM | 22.6 min | 2 µM | – | – | – | 5.89e-07 M | 5.86e-07 M | 4.31 µM | 4.27 µM | 714 1e-6 cm/s | 0.861 µM | 0.851 µM | < 1 µg/mL | 1.5 µM | 1.51 µM | Neither compound was cytotoxic | 2 µM | AC50 [2, 30]: < 50 nM; RLMS T1/2 ([3]; rat liver microsomes): favorable; AC50 at 48 h [13]: > 20000 nM; AC50 [μM], Dd2-B2 (parental line) [6, 31]: sub-micromolar; PAMPA permeability [9]: high permeability; also recorded: favorable; Aqueous Solubility [11]: poor aqueous solubility
CCCN1C(c2ccccc2)=NS(=O)(=O)c2cc(NC(=O)c3ccc(F)cc3)ccc21 [NCGC00532331] | – | – | 48 nM | > 30 min | 3.3 µM | – | – | – | 8.91e-07 M | 8.94e-07 M | 2.33 µM | 2.34 µM | 896 1e-6 cm/s | 0.71 µM | 0.708 µM | < 1 µg/mL | 1.85 µM | 1.86 µM | Neither compound was cytotoxic | 3.31 µM | AC50 [2, 30]: < 50 nM; RLMS T1/2 ([3]; rat liver microsomes): favorable; AC50 at 48 h [13]: > 20000 nM; AC50 [μM], Dd2-B2 (parental line) [6, 31]: sub-micromolar; PAMPA permeability [9]: good PAMPA permeability; also recorded: favorable; AC50 [μM], Cytb G131S ([10]; NCGC00374598 selected clone C11): maintained potency; Aqueous Solubility [11]: poor aqueous solubility
